Assay results reported in patent US6395755B1, “Benzothiophene pharmaceutical compounds” (Eli Lilly and Company, priority 1995, dated 2002).
Where two headings read alike, the source gives them in different places.

Columns and labels:
Serum cholesterol = Serum cholesterol in ovariectomized rats (post-menopausal model); format: in vivo, Sprague Dawley rats; details: oral; for Serum Cholesterol (% decrease vs. OVX): daily for 4 days
Experimental: (§1) In the examples illustrating the methods, a post-menopausal model was used in which effects of different treatments upon circulating lipids were determined.
(§2) Seventy-five day old female Sprague Dawley rats (weight range of 200 to 225 g) are obtained from Charles River Laboratories (Portage, Mich.). The animals are either bilaterally ovariectomized (OVX) or exposed to a Sham surgical procedure at Charles River Laboratories, and then shipped after one week. Upon arrival, they are housed in metal hanging cages in groups of 3 or 4 per cage and have ad libitum access to food (calcium content approximately 0.5%) and water for one week. Room temperature is maintained at 22.2° ±1.7° C. with a minimum relative humidity of 40%. The photoperiod in the room is 12 hours light and 12 hours dark.
(§3) Dosing Regimen Tissue Collection. After a one week acclimation period (therefore, two weeks post-OVX) daily dosing with test compound is initiated. 17α-ethynyl estradiol or the test compound is given orally, unless otherwise stated, as a suspension in 1% carboxymethylcellulose or dissolved in 20% cyclodextrin. Animals were dosed daily for 4 days. Following the dosing regimen, animals are weighed and anesthetized with a ketamine: Xylazine (2:1, V:V) mixture and a blood sample is collected by cardiac puncture. The animals are then sacrificed by asphyxiation with CO2, the uterus is removed through a midline incision, and a wet uterine weight is determined.
Cholesterol Analysis. Blood samples are allowed to clot at room temperature for 2 hours, and serum is obtained following centrifugation for 10 minutes at 3000 rpm. Serum cholesterol is determined using a Boehringer Mannheim Diagnostics high performance cholesterol assay. Briefly the cholesterol is oxidized to cholest-4-en-3-one and hydrogen peroxide. The hydrogen peroxide is then reacted with phenol and 4-aminophenazone in the presence of peroxidase to produce a p-quinone imine dye, which is read spectrophotemetrically at 500 nm. Cholesterol concentration is then calculated against a standard curve. The entire assay is automated using a Biomek Automated Workstation.

[1] = tested on: Uterine Eosinophil Peroxidase (EPO); parameters: species or system Sprague Dawley rats; details: rat, in vivo; for Uterine EPO (V. max): po
Excerpt: as §2, §3
Uterine Eosinophil Peroxidase (EPO) Assay. Uteri are kept at 4° C. until time of enzymatic analysis. The uteri are then homogenized in 50 volumes of 50 mM Tris buffer (pH−8.0) containing 0.005% Triton X-100. Upon addition of 0.01% hydrogen peroxide and 10 mM O-phenylenediamine (final concentrations) in Tris buffer, increase in absorbance is monitored for one minute at 450 nm. The presence of eosonophils in the uterus is an indication of estrogenic activity of a compound. The maximal velocity of a 15 second interval is determined over the initial, linear portion of the reaction curve.

[2] = tested on: uterus of ovariectomized (OVX) rats; parameters: species or system Sprague Dawley rats; details: rat, in vivo, po, 0.1 mg/kg/day
Experimental: as §1, §2
as §3, with “Following the dosing regimen, animals are weighed and anesthetized with a ketamine: Xylazine (2:1, V:V) mixture and a blood sample is collected by cardiac puncture.” left out

[3] = tested on: femur density of ovariectomized rats; experiment: Osteoporosis Test Procedure (35 day OVX rat, femur density); format: in vivo; details: oral in 20% hydroxypropyl β-cyclodextrin, daily for 35 days
Experimental: Following the General Preparation Procedure, infra, the rats are treated daily for 35 days (6 rats per treatment group) and sacrificed by carbon dioxide asphyxiation on the 36th day. The 35 day time period is sufficient to allow maximal reduction in bone density, measured as described herein. At the time of sacrifice, the uteri are removed, dissected free of extraneous tissue, and the fluid contents are expelled before determination of wet weight in order to confirm estrogen deficiency associated with complete ovariectomy. […] The uteri are then placed in 10% neutral buffered formalin to allow for subsequent histological analysis. The right femurs are excised and digitilized x-rays generated and analyzed by an image analysis program (NIH image) at the distal metaphysis. The proximal aspect of the tibiae from these animals are also scanned by quantitative computed tomography. In accordance with the above procedures, compounds of the present invention and ethynyl estradiol (EE2) in 20% hydroxypropyl β-cyclodextrin are orally administered to test animals.

Row | Uterine EPO (V. max) ([1]; 0.01 mg/kg) | Uterine EPO (V. max) ([1]; 0.1 mg/kg) | Uterine EPO (V. max) ([1]; 1 mg/kg) | Uterine EPO (V. max) ([1]; 5 mg/kg) | SMILES | Serum Cholesterol (% decrease vs. OVX) (Serum cholesterol; dose 0.01 mg/kg) [%] | Serum Cholesterol (% decrease vs. OVX) (Serum cholesterol; dose 0.1 mg/kg) [%] | Serum Cholesterol (% decrease vs. OVX) (Serum cholesterol; dose 1.0 mg/kg) [%] | Serum Cholesterol (% decrease vs. OVX) (Serum cholesterol; dose 5.0 mg/kg) [%] | Effect on serum cholesterol compared to ovariectomized controls (in words) (Serum cholesterol; OVX rats, EE2 at 0.1 mg/kg/day) | Effect on uterine weight compared to ovariectomized animals (in words) [2] | Eosinophil infiltration into the uterus (stromal layer), in words [1] | Prevention of loss of femur density / bone loss after ovariectomy [3]
1 | 4.2 | 5.1 | 7.8 | 5.7 | CC(O)(c1ccc(OCCN2CCCCC2)cc1)c1c(-c2ccc(O)cc2)sc2cc(O)ccc12 (stereo not drawn) [Example 2] | −10.2 | 19.4 | 50.7 | 53.9 | – | – | – | –
2 | 4.5 | 3.6 | 5.4 | 3.9 | CC(c1ccc(OCCN2CCCCC2)cc1)c1c(-c2ccc(O)cc2)sc2cc(O)ccc12 (stereo not drawn) [Example 4] | −26.5 | 10.4 | 43.9 | 35.2 | – | – | – | –

Second part, the compound before the results:

Row | SMILES | Uterine EPO (V. max) ([1]; 0.01 mg/kg) | Uterine EPO (V. max) ([1]; 0.1 mg/kg) | Uterine EPO (V. max) ([1]; 1 mg/kg) | Uterine EPO (V. max) ([1]; 5 mg/kg) | Serum Cholesterol (% decrease vs. OVX) (Serum cholesterol; dose 0.01 mg/kg) [%] | Serum Cholesterol (% decrease vs. OVX) (Serum cholesterol; dose 0.1 mg/kg) [%] | Serum Cholesterol (% decrease vs. OVX) (Serum cholesterol; dose 1.0 mg/kg) [%] | Serum Cholesterol (% decrease vs. OVX) (Serum cholesterol; dose 5.0 mg/kg) [%] | Effect on serum cholesterol compared to ovariectomized controls (in words) (Serum cholesterol; OVX rats, EE2 at 0.1 mg/kg/day) | Effect on uterine weight compared to ovariectomized animals (in words) [2] | Eosinophil infiltration into the uterus (stromal layer), in words [1] | Prevention of loss of femur density / bone loss after ovariectomy [3]
3 | O=C(c1ccc(OCCN2CCCCC2)cc1)c1c(-c2ccc(O)cc2)sc2cc(O)ccc12 [Raloxifene, reference compound] | 3.9 | 5.4 | 4.5 | – | 12.0 | 30.4 | 60.6 | – | – | – | – | –
4 | Oc1ccc(-c2sc3cc(O)ccc3c2C(O)(c2ccccc2)c2ccc(OCCN3CCCCC3)cc2)cc1 (stereo not drawn) [Example 8] | 4.2 | 3.6 | 4.5 | 35.1 | −9.0 | −3.1 | 14.0 | 56.9 | – | – | – | –
5 | C#C[C@]1(O)CC[C@H]2[C@@H]3CCc4cc(O)ccc4[C@H]3CC[C@@]21C [EE2, 17α-ethynyl estradiol, reference compound] | – | 189.6 | – | – | – | 84.8 | – | – | caused a decrease in serum cholesterol | substantially greater than the uterine weight of ovariectomized test animals | substantial, expected increase in eosinophil infiltration | prevented this loss
